pEC50: −log10 of the molar value.

In the assay the target is recombinant DYRK1A kinase (Homo sapiens (Human), UniProt Q13627). As to the kind of experiment: DYRK1A kinase assay (Ser/Thr 18 peptide Z-lyte FRET assay). It is filed as biochemical. As to conditions: DYRK1A kinase activity; 15 μM ATP, 1 h room temperature; method text calls the value IC50. The method in brief: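 FRET Z-lyte read-out (coumarin/fluorescein ratio, % phosphorylation) after 1 h development; IC50 from non-linear curve fit. Reaction: 0.25 μg/mL recombinant human DYRK1A, Ser/Thr 18 peptide 4 μM, ATP 15 μM, compound in 11-point 1:3 series from 10 μM, 1 h, room temperature, duplicate wells.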
As to `C[C@]1(O)CC[C@@H](Nc2ncc3c(-c4ccc5ncnn5c4)c[nH]c3n2)CC1` [Compound 3018, (1s,4s)-4-((5-([1,2,4]Triazolo[1,5-a]pyridin-6-yl)-7H-pyrrolo[2,3-d]pyrimidin-2-yl)amino)-1-methylcyclohexan-1-ol], the negative-log EC50 (pEC50) is 8.36.

For the compound `COc1nc(N[C@H]2CC[C@@H](OC)CC2)nc2[nH]cc(-c3ccc4ncnn4c3)c12` [Compound 3047, 5-([1,2,4]Triazolo[1,5-a]pyridin-6-yl)-4-methoxy-N-(cis-4-methoxycyclohexyl)-7H-pyrrolo[2,3-d]pyrimidin-2-amine], the pEC50 is 8.92.

For the compound `[2H]C([2H])([2H])Oc1nc(N[C@H]2CC[C@@H](OC)CC2)nc2[nH]cc(-c3ccc4nnn(C)c4c3)c12` [Compound 3115, 4-(Methoxy-d3)—N-(cis-4-methoxycyclohexyl)-5-(1-methyl-1H-benzo[d][1,2,3]triazol-6-yl)-7H-pyrrolo[2,3-d]pyrimidin-2-amine], the pEC50 was 8.89.

As to `COc1nc(N[C@H]2CC[C@](C)(O)CC2)nc2[nH]cc(-c3ccc4nnn(C)c4c3)c12` [Compound 3119, trans-4-((4-Methoxy-5-(1-methyl-1H-benzo[d][1,2,3]triazol-6-yl)-7H-pyrrolo[2,3-d]pyrimidin-2-yl)amino)-1-methylcyclohexan-1-ol], the pEC50 is 9.70.

Regarding `COc1nc(N[C@H]2CC[C@@](C)(O)CC2)nc2[nH]cc(-c3ccc4nnn(C)c4c3)c12` [Compound 3120, cis-4-((4-Methoxy-5-(1-methyl-1H-benzo[d][1,2,3]triazol-6-yl)-7H-pyrrolo[2,3-d]pyrimidin-2-yl)amino)-1-methylcyclohexan-1-ol], the pEC50 is 8.38.

With `COc1nc(N[C@@H]2[C@@H]3COC[C@@H]32)nc2[nH]cc(-c3ccc4nnn(C)c4c3)c12` [Compound 3127, N-((1R,5S,6s)-3-Oxabicyclo[3.1.0]hexan-6-yl)-4-methoxy-5-(1-methyl-1H-benzo[d][1,2,3]triazol-6-yl)-7H-pyrrolo[2,3-d]pyrimidin-2-amine], the pEC50 was 8.85.

As for `COc1nc(N[C@@H]2[C@@H]3COC[C@@H]32)nc2[nH]cc(-c3ccc4nnn(C)c4c3)c12` [Compound 3128, N-((1R,5S,6r)-3-Oxabicyclo[3.1.0]hexan-6-yl)-4-methoxy-5-(1-methyl-1H-benzo[d][1,2,3]triazol-6-yl)-7H-pyrrolo[2,3-d]pyrimidin-2-amine], the negative logarithm of the EC50 (pEC50) was 9.22.

As to `COc1nc(NC2CCC3(CC2)COC3)nc2[nH]cc(-c3ccc4nnn(C)c4c3)c12` [Compound 3133, 4-Methoxy-5-(1-methyl-1H-benzo[d][1,2,3]triazol-6-yl)-N-(2-oxaspiro[3.5]nonan-7-yl)-7H-pyrrolo[2,3-d]pyrimidin-2-amine], the negative logarithm of the EC50 (pEC50) is 8.96.

Regarding `C[C@]1(O)CC[C@@H](Nc2ncc3c(-c4ccc5nccn5n4)c[nH]c3n2)CC1` [Compound 3224, (1s,4s)-4-((5-(Imidazo[1,2-b]pyridazin-6-yl)-7H-pyrrolo[2,3-d]pyrimidin-2-yl)amino)-1-methylcyclohexan-1-ol], the negative-log EC50 (pEC50) was 8.59.

Regarding `CO[C@H]1CC[C@H](Nc2ncc3c(-c4ccn5nccc5c4)c[nH]c3n2)CC1` [Compound 3277, N-(trans-4-Methoxycyclohexyl)-5-(pyrazolo[1,5-a]pyridin-5-yl)-7H-pyrrolo[2,3-d]pyrimidin-2-amine], the pEC50 is 8.72.

In the case of `FC(F)O[C@H]1CC[C@H](Nc2ncc3c(-c4ccn5nccc5c4)c[nH]c3n2)CC1` [Compound 3278, N-(trans-4-(Difluoromethoxy)cyclohexyl)-5-(pyrazolo[1,5-a]pyridin-5-yl)-7H-pyrrolo[2,3-d]pyrimidin-2-amine], the pEC50 was 7.72.

For the compound `COc1nc(N)nc2[nH]cc(-c3ccn4nccc4c3)c12` [Compound 3291, 4-methoxy-5-(pyrazolo[1,5-a]pyridin-5-yl)-7H-pyrrolo[2,3-d]pyrimidin-2-amine], the pEC50 was 8.96.

Turning to `COc1nc(N[C@H]2CC[C@H](OC)CC2)nc2[nH]cc(-c3ccn4nccc4c3)c12` [Compound 3310, 4-Methoxy-N-(trans-4-methoxycyclohexyl)-5-(pyrazolo[1,5-a]pyridin-5-yl)-7H-pyrrolo[2,3-d]pyrimidin-2-amine], the pEC50 was 6.64.

`[2H]C([2H])([2H])Oc1nc(N[C@H]2CC[C@@H](OC)CC2)nc2[nH]cc(-c3ccn4nccc4c3)c12` [Compound 3311, 4-(Methoxy-d3)—N-(cis-4-methoxycyclohexyl)-5-(pyrazolo[1,5-a]pyridin-5-yl)-7H-pyrrolo[2,3-d]pyrimidin-2-amine]: the negative-log EC50 (pEC50) was 8.85.

In the case of `COc1nc(NC2CC3(COC3)C2)nc2[nH]cc(-c3ccn4nccc4c3)c12` [Compound 3321, 4-Methoxy-5-(pyrazolo[1,5-a]pyridin-5-yl)-N-(2-oxaspiro[3.3]heptan-6-yl)-7H-pyrrolo[2,3-d]pyrimidin-2-amine], the pEC50 was 7.43.

On to `COc1nc(NC2CCC3(CC2)COC3)nc2[nH]cc(-c3ccn4nccc4c3)c12` [Compound 3326, 4-Methoxy-5-(pyrazolo[1,5-a]pyridin-5-yl)-N-(2-oxaspiro[3.5]nonan-7-yl)-7H-pyrrolo[2,3-d]pyrimidin-2-amine], for which the pEC50 is 8.80.

`COc1nc(N[C@H]2CC[C@@H](OC)CC2)nc2[nH]cc(-c3ccn4ncnc4c3)c12` [Compound 3384, 5-([1,2,4]Triazolo[1,5-a]pyridin-7-yl)-4-methoxy-N-(cis-4-methoxycyclohexyl)-7H-pyrrolo[2,3-d]pyrimidin-2-amine]: the pEC50 was 8.92.

Regarding `CO[C@H]1CC[C@H](Nc2ncc3c(-c4ccn5nccc5n4)c[nH]c3n2)CC1` [Compound 3420, N-(trans-4-Methoxycyclohexyl)-5-(pyrazolo[1,5-a]pyrimidin-5-yl)-7H-pyrrolo[2,3-d]pyrimidin-2-amine], the negative-log EC50 (pEC50) was 8.25.

As for `FC(F)O[C@H]1CC[C@H](Nc2ncc3c(-c4ccn5nccc5n4)c[nH]c3n2)CC1` [Compound 3421, N-(trans-4-(difluoromethoxy)cyclohexyl)-5-(pyrazolo[1,5-a]pyrimidin-5-yl)-7H-pyrrolo[2,3-d]pyrimidin-2-amine], the pEC50 was 7.55.

Turning to `C[C@]1(O)CC[C@@H](Nc2ncc3c(-c4ccn5nccc5n4)c[nH]c3n2)CC1` [Compound 3426, (1s,4s)-1-Methyl-4-((5-(pyrazolo[1,5-a]pyrimidin-5-yl)-7H-pyrrolo[2,3-d]pyrimidin-2-yl)amino)cyclohexan-1-ol], the pEC50 is 8.49.

Regarding `c1cc2nc(-c3c[nH]c4nc(NC5CCC6(CC5)COC6)ncc34)ccn2n1` [Compound 3435, 5-(Pyrazolo[1,5-a]pyrimidin-5-yl)-N-(2-oxaspiro[3.5]nonan-7-yl)-7H-pyrrolo[2,3-d]pyrimidin-2-amine], the negative logarithm of the EC50 (pEC50) was 8.64.

In the case of `CNc1nc(N[C@H]2CC[C@](C)(O)CC2)nc2[nH]cc(-c3ccn4nccc4n3)c12` [Compound 3454, trans-1-methyl-4-((4-(methylamino)-5-(pyrazolo[1,5-a]pyrimidin-5-yl)-7H-pyrrolo[2,3-d]pyrimidin-2-yl)amino)cyclohexan-1-ol], the negative-log EC50 (pEC50) was 8.47.

For the compound `CNc1nc(N2CC3(CO)CCC2CC3)nc2[nH]cc(-c3ccn4nccc4n3)c12` [Compound 3459, (2-(4-(methylamino)-5-(pyrazolo[1,5-a]pyrimidin-5-yl)-7H-pyrrolo[2,3-d]pyrimidin-2-yl)-2-azabicyclo[2.2.2]octan-4-yl)methanol], the negative-log EC50 (pEC50) was 6.68.

As for `CNc1nc(NC2CCC3(CC2)COC3)nc2[nH]cc(-c3ccn4nccc4n3)c12` [Compound 3461, N^4-Methyl-5-(pyrazolo[1,5-a]pyrimidin-5-yl)-N^2-(2-oxaspiro[3.5]nonan-7-yl)-7H-pyrrolo[2,3-d]pyrimidine-2,4-diamine], the negative logarithm of the EC50 (pEC50) is 8.72.

Regarding `COc1nc(N[C@H]2CC[C@@H](OC)CC2)nc2[nH]cc(-c3ccc4nccnc4c3)c12` [Compound 3575, 4-Methoxy-N-(cis-4-methoxycyclohexyl)-5-(quinoxalin-6-yl)-7H-pyrrolo[2,3-d]pyrimidin-2-amine], the negative logarithm of the EC50 (pEC50) was 9.15.

For `COc1nc(NC2CCC3(CC2)COC3)nc2[nH]cc(-c3ccc4nccnc4c3)c12` [Compound 3590, 4-Methoxy-5-(quinoxalin-6-yl)-N-(2-oxaspiro[3.5]nonan-7-yl)-7H-pyrrolo[2,3-d]pyrimidin-2-amine], the pEC50 is 8.80.

Regarding `Cn1nnc2ccc(-c3c[nH]c4nc(N[C@H]5CC[C@@](C)(O)CC5)ncc34)cc21` [Compound 3643, (1s,4s)-1-Methyl-4-((5-(1-methyl-1H-benzo[d][1,2,3]triazol-6-yl)-7H-pyrrolo[2,3-d]pyrimidin-2-yl)amino)cyclohexan-1-ol], the negative logarithm of the EC50 (pEC50) is 9.15.

“N-(4,4-Difluorocyclohexyl)-4-methoxy-5-(pyrazolo[1,5-a]pyrimidin-5-yl)-7H-pyrrolo[2,3-d]pyrimidin-2-amine [Compound 2223]”: the pEC50 was 8.03.

For “N-(cis-3-Methoxycyclobutyl)-5-(1-methyl-1H-benzo[d][1,2,3]triazol-6-yl)-7H-pyrrolo[2,3-d]pyrimidin-2-amine [Compound 2051]”, the pEC50 is 8.11.

On to “N-(cis-4-(Methoxy-d3)cyclohexyl)-5-(pyrazolo[1,5-a]pyrimidin-5-yl)-7H-pyrrolo[2,3-d]pyrimidin-2-amine [Compound 2221]”, for which the negative-log EC50 (pEC50) is 8.44.

Consider “cis-4-((4-Ethoxy-5-(pyrazolo[1,5-a]pyrimidin-5-yl)-7H-pyrrolo[2,3-d]pyrimidin-2-yl)amino)cyclohexan-1-ol [Compound 2225]”, for which the pEC50 was 7.81.

The pEC50 is the negative decadic logarithm of the EC50, by convention in mol/L.
